Test: Cytotoxicity of compound towards Y190 yeast cells
Assay type: functional, cell-based
Conditions: Saccharomyces cerevisiae

SMILES | EC50 [µM]
O=C(O)C=C1CCCC1 | > 300
CC(C(=O)O)=C1CCC(c2ccccc2)CC1 (stereo not drawn) | 143
CC(C(=O)O)=C1CCC(C(C)(C)C)CC1 (stereo not drawn) | 81
CCCC1CCC(=C(C)C(=O)O)CC1 (stereo not drawn) | 74
C/C(C(=O)O)=C1\CCCC(C)C1 (stereo not drawn) | > 300
CC(C(=O)O)=C1CCCCC1 | > 300
CC(C(=O)O)=C1CCCCCC1 | > 300
O=C(O)C=C1CCCCCC1 | > 300
COc1ccc(C2CCC(=C(C)C(=O)O)CC2)cc1 (stereo not drawn) | 130
CC(C(=O)O)=C1CCCC1 | > 300
CCC1CCC(=C(C)C(=O)O)CC1 (stereo not drawn) | 125
O=CC=C1CCCCCC1 | > 300
CC(C(=O)O)=C1CCC(C)CC1 (stereo not drawn) | > 300

Source: ChEMBL document CHEMBL1135908, “Synthesis and biological evaluation of cycloalkylidene carboxylic acids as novel effectors of Ras/Raf interaction” (J Med Chem, 2002)
